Assay results reported in patent publication US20240391862A1, “(1,4,5-TRISUBSTITUTED-1H-PYRAZOL-3-YL)OXY-2-ALKOXY ALKYL ACIDS AND THEIR DERIVATIVES, THEIR SALTS AND THEIR USE AS HERBICIDAL AGENTS” (Bayer AKtiengesellschaft, priority 2021, published 2024).

Legend:
Assay in all cases: Post-emergence herbicidal effect, greenhouse pot test
[1] = test system: VERPE; assay type: in vivo, Veronica persica
Procedure, shortened: (§1)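 Sandy loam pots, greenhouse. One-leaf stage (2–3 wk after sowing) foliar spray; WP/EC in water + 0.5% additive, 600 l/ha; 20–320 g/ha. Visual score ~3 wk, 0–100% vs untreated.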

[2] = test system: POLCO; assay type: in vivo, Fallopia convolvulus
Procedure, shortened: as §1

[3] = test system: SETVI; assay type: in vivo, Setaria viridis
Procedure, shortened: as §1

[4] = test system: DIGSA; assay type: in vivo, Digitaria sanguinalis; conditions: 320 g/ha, visual rating about 3 weeks after treatment
Procedure, shortened: as §1

[5] = test system: KCHSC; assay type: in vivo
Procedure, shortened: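 Visual rating of activity against untreated plants (100% = plants died, 0% = no effect), done about 3 weeks after treatment. Compounds applied at 20–320 g/ha as aqueous spray (600 l/ha, 0.5% additive) from WP or EC formulations onto one-leaf-stage plants grown in sandy loam under greenhouse conditions.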

[6] = test system: LOLRI; assay type: in vivo, Lolium rigidum
Procedure, shortened: as §1

[7] = test system: ABUTH; assay type: in vivo, Abutilon theophrasti; conditions: visual rating about 3 weeks after treatment
Procedure, shortened: as §1

[8] = test system: PHBPU; assay type: in vivo, Ipomoea purpurea
Procedure, shortened: as §1

[9] = test system: MATIN; assay type: in vivo, Tripleurospermum inodorum
Procedure, shortened: as §1

[10] = test system: AVEFA; assay type: in vivo, Avena fatua; conditions: visual rating about 3 weeks after treatment
Procedure, shortened: as §1

[11] = test system: ALOMY; assay type: in vivo, Alopecurus myosuroides; conditions: visual rating about 3 weeks after treatment
Procedure, shortened: as §1

[12] = test system: AMARE; assay type: in vivo, Amaranthus retroflexus; conditions: visual rating about 3 weeks after treatment
Procedure, shortened: as §1

[13] = test system: ECHCG; assay type: in vivo, Echinochloa crus-galli
Procedure, shortened: as §1

[14] = test system: VIOTR; assay type: in vivo, Viola tricolor
Procedure, shortened: as §1

For `COC(=O)C(OC)Oc1nn(-c2ncccc2F)c(-c2cncc(F)c2)c1C1CC1` (centres unmarked) [Example I-73], the pest or weed control at 80 g/ha ([1]; Veronica persica, 504 h, 80 g/ha, read-out: Post-emergence effect against VERPE in %) was 90%, the pest or weed control at 320 g/ha ([1]; Veronica persica, 504 h, 320 g/ha, read-out: Post-emergence effect against VERPE in %) was 90% and the “Post-emergence effect against POLCO in %” value ([2]; 20 g/ha) was 80%. The pest or weed control at 80 g/ha ([2]; Fallopia convolvulus, 504 h, 80 g/ha, read-out: Post-emergence effect against POLCO in %) was 80%, the pest or weed control at 320 g/ha ([2]; Fallopia convolvulus, 504 h, 320 g/ha, read-out: Post-emergence effect against POLCO in %) was 90% and the “Post-emergence effect against SETVI in %” value ([3]; 20 g/ha) was 80%. The pest or weed control at 80 g/ha ([3]; Setaria viridis, 504 h, 80 g/ha, read-out: Post-emergence effect against SETVI in %) was 90%, the pest or weed control at 320 g/ha ([3]; Setaria viridis, 504 h, 320 g/ha, read-out: Post-emergence effect against SETVI in %) was 90% and the pest or weed control at 320 g/ha ([4]; Digitaria sanguinalis, 504 h, read-out: Post-emergence effect against DIGSA) was 80%. The “Post-emergence effect against KCHSC in %” value ([5]; 20 g/ha) was 80%, the pest or weed control at 80 g/ha ([5]; 504 h, 80 g/ha, read-out: Post-emergence effect against KCHSC in %) was 90% and the pest or weed control at 320 g/ha ([5]; 504 h, 320 g/ha, read-out: Post-emergence effect against KCHSC in %) was 90%. For the same molecule, the pest or weed control at 80 g/ha ([6]; Lolium rigidum, 504 h, 80 g/ha, read-out: Post-emergence effect against LOLRI in %) was 90%, the pest or weed control at 320 g/ha ([6]; Lolium rigidum, 504 h, 320 g/ha, read-out: Post-emergence effect against LOLRI in %) was 90% and the “Post-emergence effect against ABUTH” value ([7]; 20 g/ha) was 80%. It also gave a pest or weed control at 80 g/ha ([7]; Abutilon theophrasti, 504 h, 80 g/ha, read-out: Post-emergence effect against ABUTH) of 80%, a pest or weed control at 320 g/ha ([7]; Abutilon theophrasti, 504 h, 320 g/ha, read-out: Post-emergence effect against ABUTH) of 90% and a pest or weed control at 20 g/ha ([8]; Ipomoea purpurea, 504 h, 20 g/ha, read-out: Post-emergence effect against PHBPU in %) of 80%. For the same molecule, the pest or weed control at 80 g/ha ([8]; Ipomoea purpurea, 504 h, 80 g/ha, read-out: Post-emergence effect against PHBPU in %) was 90%, the pest or weed control at 320 g/ha ([8]; Ipomoea purpurea, 504 h, 320 g/ha, read-out: Post-emergence effect against PHBPU in %) was 90% and the pest or weed control at 80 g/ha ([9]; Tripleurospermum inodorum, 504 h, 80 g/ha, read-out: Post-emergence effect against MATIN in %) was 90%. For the same molecule, the pest or weed control at 320 g/ha ([9]; Tripleurospermum inodorum, 504 h, 320 g/ha, read-out: Post-emergence effect against MATIN in %) was 90%, the pest or weed control at 80 g/ha ([10]; Avena fatua, 504 h, 80 g/ha, read-out: Post-emergence effect against AVEFA) was 90% and the pest or weed control at 320 g/ha ([10]; Avena fatua, 504 h, 320 g/ha, read-out: Post-emergence effect against AVEFA) was 90%. For the same molecule, the pest or weed control at 80 g/ha ([11]; Alopecurus myosuroides, 504 h, 80 g/ha, read-out: Post-emergence effect against ALOMY) was 80%, the pest or weed control at 320 g/ha ([11]; Alopecurus myosuroides, 504 h, 320 g/ha, read-out: Post-emergence effect against ALOMY) was 90% and the pest or weed control at 20 g/ha ([12]; Amaranthus retroflexus, 504 h, 20 g/ha, read-out: Post-emergence effect against AMARE) was 80%. The pest or weed control at 80 g/ha ([12]; Amaranthus retroflexus, 504 h, 80 g/ha, read-out: Post-emergence effect against AMARE) was 90%, the pest or weed control at 320 g/ha ([12]; Amaranthus retroflexus, 504 h, 320 g/ha, read-out: Post-emergence effect against AMARE) was 90% and the pest or weed control at 20 g/ha ([13]; Echinochloa crus-galli, 504 h, 20 g/ha, visual rating about 3 weeks after treatment, read-out: Post-emergence effect against ECHCG) was 90%. The pest or weed control at 80 g/ha ([13]; Echinochloa crus-galli, 504 h, 80 g/ha, read-out: Post-emergence effect against ECHCG in %) was 90%, the pest or weed control at 320 g/ha ([13]; Echinochloa crus-galli, 504 h, 320 g/ha, read-out: Post-emergence effect against ECHCG in %) was 90% and the pest or weed control at 20 g/ha ([14]; Viola tricolor, 504 h, 20 g/ha, read-out: Post-emergence effect against VIOTR in %) was 90%. For the same molecule, the pest or weed control at 80 g/ha ([14]; Viola tricolor, 504 h, 80 g/ha, read-out: Post-emergence effect against VIOTR in %) was 90% and the pest or weed control at 320 g/ha ([14]; Viola tricolor, 504 h, 320 g/ha, read-out: Post-emergence effect against VIOTR in %) was 90%.

In the case of `COC(=O)CCOC(=O)C(OC)Oc1nn(-c2cc(F)ccc2F)c(-c2cncc(F)c2)c1C1CC1` (centres unmarked) [Example I-83], the “Post-emergence effect against VERPE in %” value ([1]; 20 g/ha) is reported as 90%, the “Post-emergence effect against VERPE in %” value ([1]; 80 g/ha) is reported as 90% and the “Post-emergence effect against VERPE in %” value ([1]; 320 g/ha) is reported as 90%. The “Post-emergence effect against POLCO in %” value ([2]; 80 g/ha) was 80%, the “Post-emergence effect against POLCO in %” value ([2]; 320 g/ha) was 90% and the “Post-emergence effect against SETVI in %” value ([3]; 20 g/ha) was 90%. For the same molecule, the “Post-emergence effect against SETVI in %” value ([3]; 80 g/ha) was 90%, the “Post-emergence effect against SETVI in %” value ([3]; 320 g/ha) was 90% and the “Post-emergence effect against DIGSA” value [4] was 90%. The “Post-emergence effect against KCHSC in %” value ([5]; 320 g/ha) was 80%, the “Post-emergence effect against LOLRI in %” value ([6]; 320 g/ha) was 90% and the “Post-emergence effect against ABUTH” value ([7]; 20 g/ha) was 80%. For the same molecule, the “Post-emergence effect against ABUTH” value ([7]; 80 g/ha) was 90%, the “Post-emergence effect against ABUTH” value ([7]; 320 g/ha) was 90% and the “Post-emergence effect against PHBPU in %” value ([8]; 20 g/ha) was 90%. For the same molecule, the “Post-emergence effect against PHBPU in %” value ([8]; 80 g/ha) was 90%, the “Post-emergence effect against PHBPU in %” value ([8]; 320 g/ha) was 90% and the “Post-emergence effect against MATIN in %” value ([9]; 20 g/ha) was 80%. For the same molecule, the “Post-emergence effect against MATIN in %” value ([9]; 80 g/ha) was 90%, the “Post-emergence effect against MATIN in %” value ([9]; 320 g/ha) was 90% and the “Post-emergence effect against AVEFA” value ([10]; 80 g/ha) was 90%. For the same molecule, the “Post-emergence effect against AVEFA” value ([10]; 320 g/ha) was 90%, the “Post-emergence effect against ALOMY” value ([11]; 80 g/ha) was 90% and the “Post-emergence effect against ALOMY” value ([11]; 320 g/ha) was 90%. For the same molecule, the “Post-emergence effect against AMARE” value ([12]; 20 g/ha) was 90%, the “Post-emergence effect against AMARE” value ([12]; 80 g/ha) was 90% and the “Post-emergence effect against AMARE” value ([12]; 320 g/ha) was 90%. For the same molecule, the “Post-emergence effect against ECHCG” value ([13]; 20 g/ha, visual rating about 3 weeks after treatment) was 90%, the “Post-emergence effect against ECHCG in %” value ([13]; 80 g/ha) was 90% and the “Post-emergence effect against ECHCG in %” value ([13]; 320 g/ha) was 90%. The “Post-emergence effect against VIOTR in %” value ([14]; 20 g/ha) was 90%, the “Post-emergence effect against VIOTR in %” value ([14]; 80 g/ha) was 90% and the “Post-emergence effect against VIOTR in %” value ([14]; 320 g/ha) was 90%.
